Source: patent US11291659B2, “P38 kinase inhibitors reduce DUX4 and downstream gene expression for the treatment of FSHD” (Fulcrum Therapeutics, Inc., priority 2017, dated 2022)

How the values were obtained:
Format in all cases: cell-based, Human
FSHD myotubes = assay: Myotube formation / fusion, MHC and DAPI staining; conditions: FSHD myotubes; 10, 100, and 1000 nM
Method: On day 0, change to differentiation media. Remove plates from the incubator and aspirate the growth medium, Wash once with PBS, 100 μL for 96-wells and 1 mL for a 6-well plate, Add 100 μL or 2 mL of differentiation medium per well, 96- or 6-well respectively. Add antisense oligonucleotides or drug at the desire concentration and put back in the incubator. Fusion should start within day 1-2. Incubate for 3-4 days.
Briefly, cells were fixed in 4% paraformaldehyde and […] for 10 min at room temperature. Cells were permeabilized with PBST (1×PBS solution with 0.1% Triton X-100) before blocking with 10% Normal Donkey Serum or 3% BSA (NDS) in PBST. […] DUX4 was detected by immunocytochemistry using the E5-5 antibody in differentiated FSHD myotubes. Activated Caspase-3 was detected cell signaling antibody that we're using for ICC, Asp175 (https://www.cellsignal.com/products/primary-antibodies/cleaved-caspase-3-asp175-antibody/9661).
Immortalized FHSD myotubes were differentiated and treated with DMSO vehicle control or FTX-1821 at concentrations of 1 μM, 0.33 μM, 0.11 μM, or 0.037 μM. […] The nuclei in myotubes were quantified according to MHC staining (FIG. 8B).

DUX4-fl mRNA = DUX4-fl mRNA by nested qPCR in FSHD myotubes; conditions: 10, 100, and 1000 nM vs DMSO
Method: In a 6 well plate, 450 μL Buffer RLT Plus was added. Lysate was homogenized by transfer the lysate to a gDNA Eliminator spin column placed in a 2 mL collection tube (supplied), centrifuged for 30 s at ≥8000×g (≥10,000 rpm) and discarded column while saving the flow-through. Then 250 μL of Ethanol (35% final) was added to the flow-through, and mixed well by pipetting, not centrifuged. Then samples were transferred, including any precipitate that may have formed, to an RNeasy MinElute spin column placed in a 2 mL collection tube (supplied). Then centrifuged for 15 s at […]. Flow-through was discarded or collected for Protein precipitation. 700 μL Buffer RW1 to the RNeasy MinElute spin column was added then centrifuge for 15 s at ≥8000×g. and discard the flow-through. DNAse treatment was performed by gently mixing 10 μL DNAseI with 70 μL of Buffer RDD and added directly to the column, incubated at room temperature for 20 min. Then, 700 μL Buffer RW1 (per manufactures specification) to the RNeasy MinElute spin column, centrifuged for 15 s at ≥8000×g. and the flow-through discarded. 500 μL Buffer RPE was added to the RNeasy MinElute spin column centrifuged for 15 s at ≥8000×g and discarded the flow-through. […]
cDNA preparation. […] 10 seconds then read plate on QuantStudio7 as per manufactures instruction (Thermo). […]

active Caspase-3 = assay: Apoptosis by active Caspase-3 in FSHD myotubes; conditions: FSHD1 and FSHD2 lines; 1 μM
Method: Briefly, cells were fixed in 4% paraformaldehyde and […] for 10 min at room temperature. Cells were permeabilized with PBST (1×PBS solution with 0.1% Triton X-100) before blocking with 10% Normal Donkey Serum or 3% BSA (NDS) in PBST. Cells were then incubated with appropriately diluted primary antibodies in PBST with 5% NDS for 1 hours at room temperature or 12 hours at 4° C., washed with PBST for 3 times at room temperature and then incubated with desired secondary antibodies in TBST with 5% NDS and DAPI to counter stain the nuclei. DUX4 was detected by immunocytochemistry using the E5-5 antibody in differentiated FSHD myotubes. Activated Caspase-3 was detected cell signaling antibody that we're using for ICC, Asp175 (https://www.cellsignal.com/products/primary-antibodies/cleaved-caspase-3-asp175-antibody/9661).
Apoptosis was measured by active Caspase-3 levels in FSHD myotubes in vitro as described in Materials and Methods. Apoptosis was detected in a sporadic manner in a subset of myotubes in culture as shown by the white circles and magnified region in FIG. 9A. Active Caspase-3 signal was quantified in FSHD myotubes that had been treated with FTX-1821 at different concentrations (FIG. 9B). […] No change in active Caspase-3 signal was observed following DMSO treatment.

Compound: Cn1c(=O)c(Oc2ccc(F)cc2F)cc2cnc(NC(CCO)CCO)nc21 [Pamapimod, 6-(2,4-difluorophenoxy)-2-((1,5-dihydroxypentan-3-yl)amino)-8-methylpyrido[2,3-d]pyrimidin-7(8H)-one]
- differentiation into myotubes (FSHD myotubes): without impacting
- DUX4-fl mRNA levels normalized to POLR2A mRNA (DUX4-fl mRNA): dose-dependently reduced
- apoptosis (active caspase-3) (active Caspase-3): reduction in apoptosis
